These are literature values, as cited in patent EP1121935B1, “Pharmaceutical composition containing a small or medium size peptide” (Patents Exploitation Company B.V., priority 2000, dated 2001).

Data set [1] relates to nasal ciliar motility. The conditions noted are these: reported by Hofmann T. et al., 1998.
For data set [2] the following is noted: solutions free from preservative; polystyrene, polypropylene and glass tubes; 24 hours at room temperature.

On to benzalkonium chloride, for which, in data set [1], the “effect on nasal ciliar motility” value is “irreversible suppression of the nasal ciliar motility”. “1-(3-mercaptopropanoic acid)-8-D-argininevasopressin [desmopressin]”: the “loss of active principle because of the adsorption by the walls” value in data set [2] is recorded as “about the half”.
